# Assays:
# [1] = tested on: hippocampal neurons; experiment: Glutamate-triggered neuronal cell death in hippocampal neurons; type: cell-based; settings: in vitro
# Description: To examine whether test compounds can promote neuronal survival, hippocampal neurons can be prepared, and the primary neurons pre-treated with various test compounds for a period of time, for example, 30 min, followed by 50 μM glutamate treatment for a period of time, for example, 16 h.
# TrkA is highly expressed in hippocampal neurons (Culmsee et al., 2002; Kume et al., 2000; Zhang et al., 1993). […] To examine whether these compounds can promote neuronal survival, one can prepare hippocampal neurons and pre-treat the primary neurons with various gambogic amine derivatives for 30 min, followed by 50 μM glutamate treatment for 16 h.
# [2] = tested on: hippocampal neurons; experiment: OGD (Oxygen and Glucose Deprivation) neuronal cell death in hippocampal neurons; type: cell-based; settings: in vitro
# Description: NGF overexpression decreases infarct volume and neuronal apoptosis in transgenic mice or intraventricular injected mice (Guegan et al., 1998; Luk et al., 2004). NGF also potently protects PC12 cells from apoptosis in an OGD (Oxygen-glucose-deprivation) model (Tabakman et al., 2005). To explore whether test compounds might exert any protective effect on hippocampal neurons in OGD, the primary preparations can be pre-treated with NGF or test compounds 30 min before OGD stimulation. […] Titration assays can show whether the compounds protect neurons in a dose-dependent manner. Therefore, the assay can identify compounds which selectively protect TrkA expression cells and primary neurons from apoptosis.
# NGF overexpression decreases infarct volume and neuronal apoptosis in transgenic mice or intraventricular injected mice (Guegan et al., 1998; Luk et al., 2004). NGF also potently protects PC12 cells from apoptosis in an OGD (Oxygen-glucose-deprivation) model (Tabakman et al., 2005). To explore whether gambogic amines exert any protective effect on hippocampal neurons in OGD, one can pre-treat the primary preparations with NGF or various compounds 30 min before OGD stimulation. […] Titration assays can reveal whether or not the compounds protect neurons in a dose-dependent manner. […]
# [3] = tested on: hippocampus; experiment: Kainic acid-elicited neuronal cell death in mouse brain (TUNEL, hippocampus); type: in vivo, C57BL/6 mice; settings: mouse brain
# Description: Kainic acid (KA) is a potent agonist for the AMPA receptor. Peripheral injections of KA result in recurrent seizures and the subsequent degeneration of select populations of neurons in the hippocampus (Nadler et al., 1980; Schauwecker and Steward, 1997; Sperk et al., 1983). It has been shown that the activation of caspase-3 is a necessary component of KA-induced cell death (Faherty et al., 1999). To explore whether test compounds can block the neurotoxicity initiated by KA, the compounds can be subcutaneously injected (for example, at a concentration of 2 mg/kg) into C57BL/6 mice, followed by 25 mg/kg KA. In 5 days, the mice can be perfused and the brains cut to a thickness of 5 μm and mounted on slides.
# Kainic acid (KA) is a potent agonist for the AMPA receptor. Peripheral injections of KA result in recurrent seizures and the subsequent degeneration of select populations of neurons in the hippocampus (Nadler et al., 1980; Schauwecker and Steward, 1997; Sperk et al., 1983). It has been shown that the activation of caspase-3 is a necessary component of KA-induced cell death (Faherty et al., 1999). To explore whether gambogic amines can block the neurotoxicity initiated by KA, one can subcutaneously inject 2 mg/kg of a gambogic amine into C57BL/6 mice, followed by 25 mg/kg KA. In 5 days, the mice can be perfused and the brains were cut to a thickness of 5 μm and mounted on slides. TUNEL staining can reveal whether KA provokes enormous apoptosis in the hippocampus, and whether this effect is substantially diminished by the gambogic amine.
# Male C57BL/6 mice aged of 60 days can be injected subcutaneously (s.c.) with a single dose of either 30% ethanol in saline or KA (25 mg/kg) (Sigma, Mo.) or the gambogic amine (2 mg/kg) followed by KA. Animals can be continually monitored for 2 h for the onset of seizure activity. At 5 days following treatment, animals can be anesthetized and perfused with 4% paraformaldehyde in 0.1 M phosphate buffered saline. Brains can be removed, post-fixed overnight and processed for paraffin embedding. […]
# [4] = tested on: T17 cells (TrkA stably transfected SN56 cells); experiment: Cell-based apoptotic assay: protection of TrkA-expressing T17 cells from staurosporine-initiated apoptosis, MR(DEVD)2 caspase-3 dye; design: species or system murine; settings: 0.5 μM pre-incubation, then 1 μM STS for 9 h; compared with NGF
# Description: In order to identify small molecules that mimic NGF and activate TrkA, we developed a cell-based apoptotic assay using a cell permeable fluorescent dye MR([…])2, which turns red upon caspase-3 cleavage in apoptotic cells. We utilized a murine cell line T17, which was derived from basal forebrain SN56 cells. T17 cells are TrkA stably transfected SN56 cells. The candidates selectively protecting T17 but not SN56 cells from the first round screen can then be subjected to neurite outgrowth assay for the secondary screen. The positive compounds can be analyzed for TrkA tyrosine phosphorylation, Akt and MAP kinases signaling cascade activation.
# T17 cells can be cultured in 96-well plates and preincubated with 10 μM compounds for 30 min, followed by 1 μM staurosporine (STS) treatment for 9 h. MR(DEVD)2 can be introduced to the cells 1 h before examination under fluorescent microscope. The apoptotic cells are red, while live cells have no signal. […] Using the caspase-3-activated fluorescent dye as a visual assay, one can screen the gambogic amine compounds.
# To compare the apoptosis inhibitory activity of various compounds, one can pre-incubate gambogic amines derivatives (0.5 μM) with T17 and SN56 cells, followed by 1 μM STS for 9 h. Quantitative analysis of the apoptosis inhibitory activities can determine whether the compounds protect SN56 cells from apoptosis.
# T17 cells can be seeded in a 96-well plate at 10,000 cells/well in 100 μl complete medium. Cells can be incubated overnight, followed by 30 min pretreatment with 10 μM compounds in DMSO (10 mM stock concentration from The Spectrum Collection library). The cells can then be treated with 1 μM Staurosporine for 9 h. One h before the termination of the experiment, 10 μM MR(DEVD)2, a cell permeable caspase-3-activated fluorescent dye can be introduced. Cells can be fixed with 4% paraformaldehyde for 15 min. Cells can then be washed with PBS and incubated with 1 μg/ml of Hoechst 33342 for 10 min. Cover slides can then be washed with PBS, mounted, and examined using a fluorescence microscope.
smiles,measurement,setting,value
CC(C)=CCC[C@]1(C)C=Cc2c(O)c3c(c(CC=C(C)C)c2O1)O[C@]12C(=C[C@@H]4CC1C(C)(C)O[C@@]2(C/C=C(/C)C(N)=O)C4=O)C3=O [gambogic amide],protection of hippocampal neurons from glutamate-triggered neuronal cell death,[1],potent neurotrophic effects
same,protection of hippocampal neurons from OGD neuronal cell death,[2],potent neurotrophic effects
same,block of kainic acid-elicited neuronal cell death in mouse brain,[3],strongly block
same,apoptosis inhibitory activity in T17 cells,[4],strongly suppress apoptosis in T17 cells with protective activities even stronger than NGF
